Test results published in patent publication US10793520B2, “Sulfonylaminobenzamide compound and pest control agent” (Nippon Soda Co., Ltd., priority 2016, dated 2020).

Key:
Meloidogyne incognita [1] = assay: Efficacy test against Meloidogyne incognita (in vitro test); conditions: 48 h, final concentration 50 ppm, second-instar larvae (L2), 2 days at 15° C., read-out: nematode mortality (still) rate against Meloidogyne incognita
Method: (§1) Two hundred μL of a suspension containing about 50 second-instar larvae (L2) of Meloidogyne incognita was dispensed into each well of a 96-well microplate, and 0.2 μL of a 10,000 ppm dimethylsulfoxide solution of the compound of the present invention was injected into each well to achieve a final concentration of 50 ppm. Mortality was investigated after 2 days treatment at 15° C., and the nematode mortality rate was calculated. […] The test was repeated.

Aedes aegypti = assay: Contact/ingestion efficacy test against Aedes aegypti larvae; type: in vivo; conditions: final concentration 12.5 μM, first-instar larvae, after 48 hours, 28° C., 80% RH, read-out: mortality rate against Aedes aegypti
Method: A DMSO solution of the compound of the present invention was diluted with water to obtain a 125 μM dilute solution. Ten first-instar larvae of Aedes aegypti were placed in each well of a 96-well microtiter plate, the above dilute liquid was added in a ratio of 1/10, and a test was conducted at a final concentration of 12.5 μM. The samples were incubated in a temperature-controlled room (28° C., 80% RH), and after 48 hours of treatment with the compound, the mortality of the larvae was investigated. The test was repeated.

Caenorhabditis elegans = assay: Efficacy test against Caenorhabditis elegans (in vitro test); conditions: 48 h, final concentration 50 ppm, mixed instars, 2 days at 25° C., read-out: nematode mortality rate against Caenorhabditis elegans
Method: as §1, with “mixed instars” for “second-instar larvae (L2)”, “Caenorhabditis elegans” for “Meloidogyne incognita”, “25°” for “15°”

Spodoptera litura = assay: Efficacy test against Spodoptera litura (cabbage leaf dip); type: in vivo; conditions: foliar, 144 h, cabbage leaves soaked 30 seconds, second-instar larvae, 6 days after larvae release, read-out: mortality rate against Spodoptera litura
Method: (§2) Five parts of the compound of the present invention, 93.6 parts of dimethylformamide and 1.4 parts of a polyoxyethylene alkyl aryl ether were mixed together and dissolved to obtain an emulsion (1) containing 5% of the active constituent.
The mortality rate was calculated using the following equation. Mortality rate (%)=(number of dead pests/number of test pests)×100
The emulsion (1) was diluted with water to achieve a concentration of the compound of the present invention of 125 ppm. Cabbage leaves were soaked in the diluted liquid for 30 seconds. These cabbage leaves were then placed in a Petri dish, and five second-instar larvae of Spodoptera litura were released into the dish. The Petri dish was placed in a temperature-controlled room at a temperature of 25° C. and a humidity of 60%. Mortality was investigated 6 days after larvae release, and the mortality rate was calculated. The test was repeated.

Mythimna separata = assay: Efficacy test against Mythimna separata (treated artificial feed); conditions: in vivo
Method in brief: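 Second-instar larvae (2 per area) were given artificial feed mixed with a 5% active-constituent emulsion in DMF with polyoxyethylene alkyl aryl ether. They were kept sealed at 25 °C. Mortality (dead/tested ×100) and feed consumption were scored on day 5, with a compound-free emulsion as control.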

Ascaridia galli = assay: Efficacy test against Ascaridia galli (in vitro, L3 larvae, MEC); conditions: activity against at least one type of target parasitic worm: Ascaridia galli L3 or Oesophagostomum dentatum L3/L4
Method: Using the gut-welling larval stages of two parasitic worms: namely, the third stage larvae (L3) of Ascaridia galli, and the third and fourth stage larvae (L3 and L4 respectively) of Oesophagostomum dentatum, the bioactivity of compounds of the present invention were investigated in vitro. When conducting these tests, DMSO solutions of the compounds of the present invention were prepared at various concentrations and incubated in the wells of a 96-well microtiter plate. Subsequently, 20 parasitic worm larvae were inoculated into each well. The bioactivity was determined by inspection under a microscope. The inspection under a microscope included evaluations of the mortality rate, injury, motility, development progression, and neutral red uptake by the larvae compared with a DMSO control.

Dirofilaria immitis = assay: Efficacy test against Dirofilaria immitis (in vitro, Mf and L4); conditions: 10 μM, 72 hours, 37° C.
From the text: Using the microfilarial stage and the fourth stage larvae (Mf and L4 respectively) of Dirofilaria immitis, the bioactivity of compounds of the present invention were investigated in vitro. The Mf was collected from the blood of infected dogs, and 500 microfilariae were inoculated into each well of a 96-well microtiter plate. The L4 larvae was obtained by allowing L3 larvae collected from infected mosquitoes to undergo a single molt, and 10 of these L4 larvae were inoculated into each well. Subsequently, a 10 mM DMSO solution of the compound of the present invention was prepared at various concentrations and added to each well in a ratio of 1/1,000, and a test was then conducted at a final concentration of 10 μM. Incubation was performed at 37° C. in an environment containing 5% carbon dioxide, and 72 hours after treatment with the compound, the mortality and growth inhibition were determined. The test was repeated.

Meloidogyne incognita [2] = assay: Efficacy test against Meloidogyne incognita (clubroot formation suppression test on cucumber); type: in vivo; conditions: 125 ppm, 1 ml irrigated on culture medium with cucumber seeds; 200 eggs; after 14 days; relative to untreated sample
Method: as §2
The emulsion (I) was diluted with water to achieve a concentration of the compound of the present invention of 125 ppm. A plastic container with a diameter of 5 cm was filled with 7 g of a culture medium, and cucumber seeds were planted. The culture medium was irrigated with 1 ml of the above dilute liquid, and then inoculated with 200 eggs of Meloidogyne incognita. The container was then placed in a temperature-controlled room at a temperature of 25° C. and a humidity of 60%, and after 14 days, the clubroot formation suppression ratio (%) relative to an untreated sample was calculated from the number of clubroots formed on the roots of the cucumber plants. The test was repeated. Clubroot formation suppression ratio (%)=(1−Nt/Nc)×100
Nt: Total number of club roots formed in two treated samples after 14 days
Nc: Total number of club roots formed in two untreated samples after 14 days

SMILES: O=C(Nc1ccc(C(F)(F)F)cc1)c1ccc(C(F)(F)F)cc1NS(=O)(=O)C(F)(F)F [a-9, 4-(trifluoromethyl)-N-[4-(trifluoromethyl)phenyl]-2-(trifluoromethylsulfonylamino)benzamide]
- mortality at 50 ppm (Meloidogyne incognita [1]): ≥ 80%
- mortality at 12.5 µM (Aedes aegypti): ≥ 80%
- mortality at 50 ppm (Caenorhabditis elegans): ≥ 80%
- mortality at 125 ppm (Spodoptera litura): ≥ 80%

SMILES: O=C(Nc1ccc(F)c(C(F)(F)F)c1)c1ccc(OC(F)(F)F)cc1NS(=O)(=O)C(F)(F)F [a-25]
- mortality rate against Mythimna separata, or amount of feed consumed relative to control (Mythimna separata): 100%, or the amount of feed consumed was 10% or less
- MEC (minimum effective concentration) (Ascaridia galli): ≤ 25 µM

SMILES: O=C(Nc1ccc(C(F)(F)F)cc1)c1ccc(OC(F)(F)F)cc1NS(=O)(=O)C(F)(F)F [a-26]
- mortality rate or growth inhibition rate (Dirofilaria immitis; fourth stage larvae (L4)): at least 90%
- mortality rate or growth inhibition rate (Dirofilaria immitis; microfilarial stage (Mf)): at least 90%
- mortality rate against Mythimna separata, or amount of feed consumed relative to control (Mythimna separata): 100%, or the amount of feed consumed was 10% or less

SMILES: COC(=O)c1cc(Cl)c(Cl)cc1NC(=O)c1ccc(C(F)(F)F)cc1NS(=O)(=O)C(F)(F)F [a-80]
- clubroot formation suppression ratio against Meloidogyne incognita (Meloidogyne incognita [2]): ≥ 80%
- mortality rate against Mythimna separata, or amount of feed consumed relative to control (Mythimna separata): 100%, or the amount of feed consumed was 10% or less

SMILES: O=C(Nc1ccc(C(F)(F)F)cc1)c1ccc(-c2ccc(C(F)(F)F)nc2)cc1NS(=O)(=O)C(F)(F)F [a-118]
- mortality rate against Mythimna separata, or amount of feed consumed relative to control (Mythimna separata): 100%, or the amount of feed consumed was 10% or less

SMILES: O=C(Nc1ccc(C(F)(F)F)c(F)c1)c1ccc(-c2ccc(C(F)(F)F)nc2)cc1NS(=O)(=O)C(F)(F)F [a-119]
- mortality rate against Mythimna separata, or amount of feed consumed relative to control (Mythimna separata): 100%, or the amount of feed consumed was 10% or less

SMILES: O=C(Nc1ccc(F)c(C(F)(F)F)c1)c1ccc(-c2ccc(C(F)(F)F)nc2)cc1NS(=O)(=O)C(F)(F)F [a-120]
- mortality rate against Mythimna separata, or amount of feed consumed relative to control (Mythimna separata): 100%, or the amount of feed consumed was 10% or less

SMILES: O=C(Nc1ccc([N+](=O)[O-])cc1)c1ccc(-c2ccc(C(F)(F)F)nc2)cc1NS(=O)(=O)C(F)(F)F [a-121]
- mortality rate against Mythimna separata, or amount of feed consumed relative to control (Mythimna separata): 100%, or the amount of feed consumed was 10% or less

SMILES: O=C(Nc1ccc(C(F)(F)F)cc1)c1cc(C(F)(F)F)c(F)cc1NS(=O)(=O)C(F)(F)F [a-122]
- mortality rate against Mythimna separata, or amount of feed consumed relative to control (Mythimna separata): 100%, or the amount of feed consumed was 10% or less

SMILES: O=C(Nc1ccc(C(F)(F)F)cc1)c1cc(F)c(C(F)(F)F)cc1NS(=O)(=O)C(F)(F)F [a-123]
- mortality rate against Mythimna separata, or amount of feed consumed relative to control (Mythimna separata): 100%, or the amount of feed consumed was 10% or less

SMILES: O=C(Nc1ccc(C(F)(F)F)cc1)c1cc(Br)c(Cl)cc1NS(=O)(=O)C(F)(F)F [a-124]
- mortality rate against Mythimna separata, or amount of feed consumed relative to control (Mythimna separata): 100%, or the amount of feed consumed was 10% or less

SMILES: COC(=O)c1c(NC(=O)c2ccc(C(F)(F)F)cc2NS(=O)(=O)C(F)(F)F)ccc(Br)c1F [a-126]
- mortality rate against Mythimna separata, or amount of feed consumed relative to control (Mythimna separata): 100%, or the amount of feed consumed was 10% or less

SMILES: O=C(Nc1ccc(C(F)(F)F)cc1)c1cc(F)c(F)cc1NS(=O)(=O)C(F)(F)F [a-127]
- mortality rate against Mythimna separata, or amount of feed consumed relative to control (Mythimna separata): 100%, or the amount of feed consumed was 10% or less

SMILES: O=C(Nc1ccc(C(F)(F)F)cc1)c1cc(Cl)c(Cl)cc1NS(=O)(=O)C(F)(F)F [a-128]
- mortality rate against Mythimna separata, or amount of feed consumed relative to control (Mythimna separata): 100%, or the amount of feed consumed was 10% or less

SMILES: O=C(Nc1ccc(C(F)(F)F)cc1)c1cc(Cl)c(F)cc1NS(=O)(=O)C(F)(F)F [a-129]
- mortality rate against Mythimna separata, or amount of feed consumed relative to control (Mythimna separata): 100%, or the amount of feed consumed was 10% or less

SMILES: COC(=O)c1ccc(C(F)(F)F)cc1NC(=O)c1cc(Br)c(Cl)cc1NS(=O)(=O)C(F)(F)F [a-131]
- mortality rate against Mythimna separata, or amount of feed consumed relative to control (Mythimna separata): 100%, or the amount of feed consumed was 10% or less

SMILES: COC(=O)c1cc(F)c(F)cc1NC(=O)c1cc(Cl)c(Br)cc1NS(=O)(=O)C(F)(F)F [a-132]
- mortality rate against Mythimna separata, or amount of feed consumed relative to control (Mythimna separata): 100%, or the amount of feed consumed was 10% or less

SMILES: CC(=O)c1ccc(C(F)(F)F)cc1NC(=O)c1ccc(C(F)(F)F)cc1NS(=O)(=O)C(F)(F)F [a-134]
- mortality rate against Mythimna separata, or amount of feed consumed relative to control (Mythimna separata): 100%, or the amount of feed consumed was 10% or less

SMILES: O=C(Nc1ccc(C(F)(F)F)cc1-n1cccn1)c1ccc(C(F)(F)F)cc1NS(=O)(=O)C(F)(F)F [a-135]
- mortality rate against Mythimna separata, or amount of feed consumed relative to control (Mythimna separata): 100%, or the amount of feed consumed was 10% or less

SMILES: COC(=O)c1ccc(C(F)(F)F)cc1NC(=O)c1cc(Cl)c(F)cc1NS(=O)(=O)C(F)(F)F [a-137]
- mortality rate against Mythimna separata, or amount of feed consumed relative to control (Mythimna separata): 100%, or the amount of feed consumed was 10% or less

SMILES: O=C(Nc1ccc(F)c(F)c1)c1ccc(C(F)(F)F)cc1NS(=O)(=O)C(F)(F)F [a-138]
- mortality rate against Mythimna separata, or amount of feed consumed relative to control (Mythimna separata): 100%, or the amount of feed consumed was 10% or less

SMILES: O=C(Nc1cc(C(F)(F)F)ccc1-c1nnco1)c1ccc(C(F)(F)F)cc1NS(=O)(=O)C(F)(F)F [a-139]
- mortality rate against Mythimna separata, or amount of feed consumed relative to control (Mythimna separata): 100%, or the amount of feed consumed was 10% or less

SMILES: O=C(Nc1ccc(F)c(C(F)(F)F)c1)c1ccc(Cl)cc1NS(=O)(=O)C(F)(F)C(F)(F)C(F)(F)C(F)(F)F [a-141]
- mortality rate against Mythimna separata, or amount of feed consumed relative to control (Mythimna separata): 100%, or the amount of feed consumed was 10% or less

SMILES: O=C(Nc1ccc(F)c(F)c1)c1cc(Br)c(Cl)cc1NS(=O)(=O)C(F)(F)F [a-143]
- mortality rate against Mythimna separata, or amount of feed consumed relative to control (Mythimna separata): 100%, or the amount of feed consumed was 10% or less

SMILES: O=C(NCc1ccc(Cl)cc1)c1ccc(C(F)(F)F)cc1NS(=O)(=O)C(F)(F)F [b-1]
- mortality rate against Mythimna separata, or amount of feed consumed relative to control (Mythimna separata): 100%, or the amount of feed consumed was 10% or less

SMILES: CC(C)(NC(=O)c1ccc(C(F)(F)F)cc1NS(=O)(=O)C(F)(F)F)c1ccc(Cl)cc1 [b-2]
- mortality rate against Mythimna separata, or amount of feed consumed relative to control (Mythimna separata): 100%, or the amount of feed consumed was 10% or less

SMILES: CC(NC(=O)c1ccc(C(F)(F)F)cc1NS(=O)(=O)C(F)(F)F)c1ncc(C(F)(F)F)cc1Cl (centres unmarked) [b-4]
- mortality rate against Mythimna separata, or amount of feed consumed relative to control (Mythimna separata): 100%, or the amount of feed consumed was 10% or less

SMILES: CCC(NC(=O)c1ccc(C(F)(F)F)cc1NS(=O)(=O)C(F)(F)F)c1ccc(C(F)(F)F)cn1 (centres unmarked) [b-6]
- mortality rate against Mythimna separata, or amount of feed consumed relative to control (Mythimna separata): 100%, or the amount of feed consumed was 10% or less
